Results as given in US10716771B2, “Pharmaceutical composition for preventing or treating immune diseases or inflammatory diseases, containing biguanide derivative compound as active ingredient” (THE CATHOLIC UNIVERSITY OF KOREA INDUSTRY-ACADEMIC …, priority 2013, dated 2020).

How the values were obtained:
osteoclast = assay: Osteoclast differentiation, TRAP staining; type: cell-based, mouse; conditions: bone marrow of arthritis animal model, MCSF 10 ng/ml and RANKL 50 ng/ml
Method: In order to verify whether the biguanide derivative compound of the present invention suppresses the osteoclast differentiation, while a bone marrow extracted from a leg in an arthritis animal model was treated with MCSF (10 ng/ml) and RANKL (50 ng/ml) to differentiate the osteoclast, metformin, SD-196, SD-216, and SD-217 were treated, respectively, and the differentiation degrees of the osteoclast were evaluated. The evaluation was performed by using TRAP straining.

IL-17 = IL-17 sandwich ELISA, Example 8-3; type: cell-based, mouse; conditions: incubated supernatant
Method: (§1) In order to evaluate an arthritis therapeutic effect of the biguanide derivative compound of the present invention, in a rheumatoid arthritis animal model, cytotoxicity, generation of autoantibody, expression of inflammatory cytokines and regulatory T cells (Treg), and osteoclast differentiation were measured. Like Examples, metformin was used as a control group. In order to evaluate an effect of suppressing the expression of the inflammatory cytokine of the biguanide derivative compound of the present invention, the incubated supernatant was collected and the expression degrees of IL-17 and TNF-α of a mouse were examined by using a sandwich ELISA. […] of a monoclonal anti-IL-17 or anti-TNF-α was reacted in a 96-well plate at 4° C. overnight and then a non-specific binding was blocked by a blocking solution (1% BSA/PBST) after the reaction. An IL-17 or TNF-α recombinant was continuously diluted by 1/2 to be used as a standard, added with the cell-incubated supernatant, and reacted at room temperature for 2 hrs. Thereafter, biotinylated anti-IL-17 or anti-TNF-α was added and reacted at room temperature for 2 hrs, washed four times after the reaction, diluted with a diluted ExtraAvidin-alkaline phosphatase conjugate, and reacted at room temperature for 2 hrs. After the reaction, a PNPP/DEA was added and colored, and absorbance was measured at a wavelength of 405 nm.

[1] = Cytotoxicity (MTT) in lupus animal model; type: cell-based
Method: (§2) In order to examine cytotoxicity of the biguanide derivative compound of the present invention, an MTT assay was performed. Cells were isolated from the spleen in a normal mouse group and the isolated cells were incubated for 3 days in the concentration of 0.5 μg/ml of anti-CD3 or 100 ng/ml of LPS 100, and metformin, SD-196, SD-216 or SD-217 was treated for each concentration and incubated for 3 days. […] In order to evaluate a lupus therapeutic effect of the biguanide derivative compound of the present invention, in a lupus animal model, cytotoxicity, autoantibody generation, generation of inflammatory cytokines, and Th17 regulation were measured by the same method as Example 8.

IgG = IgG generation in lupus animal model; type: cell-based; conditions: compared with metformin
Method: In order to examine an effect of suppressing the generation of autoantibody of the biguanide derivative compound of the present invention, the incubated supernatant was collected and the IgG expression degree was examined by using an ELISA. A monoclonal anti-IgG was reacted at 4° C. overnight in a 96-well plate and then a non-specific binding was blocked by a blocking solution. A mouse control serum was continuously diluted by 1/2 to be used as a standard, added with the cell-incubated supernatant, and reacted at room temperature for 2 hrs. Thereafter, HRP-anti-IgG was reacted at room temperature for 2 hrs, washed four times after reaction, added with the diluted HRP-conjugate, and reacted at room temperature for 2 hrs.
In order to evaluate a lupus therapeutic effect of the biguanide derivative compound of the present invention, in a lupus animal model, cytotoxicity, autoantibody generation, generation of inflammatory cytokines, and Th17 regulation were measured by the same method as Example 8.

normal cells = assay: Cytotoxicity (MTT) in normal (human) cells; type: cell-based
Method: as §2, with “development possibility” for “lupus therapeutic effect”, “invention as an agent for preventing or treating immune diseases, effects of modulating cytotoxicity and” for “invention, in a lupus animal model, cytotoxicity, autoantibody generation,”, “cytokines by targeting normal cells” for “cytokines, and Th17 regulation”

TNF-α = TNF-α expression in normal (human) cells; type: cell-based; conditions: compared with metformin
Method: as §1, with “In” for “In order to evaluate an arthritis therapeutic effect of the biguanide derivative compound of the present invention, in a rheumatoid arthritis animal model, cytotoxicity, generation of autoantibody, expression of inflammatory cytokines and regulatory T cells (Treg), and osteoclast differentiation were measured. Like Examples, metformin was used as a control group. In”
In order to evaluate a development possibility of the biguanide derivative compound of the present invention as an agent for preventing or treating immune diseases, effects of modulating cytotoxicity and generation of inflammatory cytokines by targeting normal cells were measured by the same method as Example 8.

Row | Structure (SMILES) | differentiation of the osteoclast (osteoclast) | IL-17 inflammatory cytokine expression (IL-17) | cytotoxicity [1] | expression of IgG (IgG) | cytotoxicity (normal cells) | expression of TNF-α (TNF-α)
1 | CC(C)NC(=N)NC(=N)N [SD-000196, 1-isopropylbiguanide] | significantly suppress | significantly suppressed | no cytotoxicity | significantly suppressed | – | –
2 | NC(N)=N/C(N)=N/c1cccc(F)c1 [SD-000216, 1-(3-fluorophenyl)biguanide] | significantly suppress | significantly suppressed | no cytotoxicity | significantly suppressed | no cytotoxicity | suppressed
3 | N=C(N)NC(=N)Nc1ccc(F)cc1F [SD-000217, 1-(2,4-difluorophenyl)biguanide] | significantly suppress | significantly suppressed | no cytotoxicity | significantly suppressed | no cytotoxicity | suppressed
